Consider 87 molecules from a melting point compilation (Tetko et al.; mined from patent text by program, amines drawn as free bases though some values may be those of a salt).

Structures are written as SMILES. Some results are limits rather than exact numbers.

In general, melting point refers to the temperature of the solid-liquid transition. `C=CCO[C@H]1[C@H](C)OC(=O)[C@@H](NC(=O)c2nccc(OC)c2OCc2ccccc2)COC(=O)[C@@H]1Cc1ccccc1` had a melting point of 55 to 57 °C.

In turn, `O=C(O)CN1C(=O)c2ccc(C(=O)O)cc2C1=O` gave a melting point of 262 to 265 °C.

The molecule `CCSc1nnc(-c2ccccc2)n1Cc1ccc(N)cc1` registered a melting point of 126 to 127 °C.

Molecule `CCCCC(CC)Nc1cc(C)nc(Cl)c1[N+](=O)[O-]` (configuration not stated) returned a melting point of 48 to 49 °C.

`CNC(=O)NS(=O)(=O)c1cc(CCNC(=O)C=Cc2ccc(OC)cc2OC)ccc1OC` had a melting point of 210 °C.

`CC1OC(n2cc(F)c(NC(=O)c3ccc(Cl)cc3)nc2=O)C(O)C1O` (configuration not stated) had a melting point of 142 to 146 °C.

`Cc1cccc2ncn(C(C)C(O)(Cn3cncn3)c3ccc(F)cc3F)c(=O)c12` (configuration not stated) had a melting point of 87 to 89 °C.

For `COC(=O)CC(O)CP(=O)(C#Cc1c(C(C)C)c2n(c1-c1ccc(F)cc1)CCCC2)OC` (configuration not stated), the melting point lay in the range of 100 to 101 °C.

`Cc1cc(-c2cc3cc(OCCNC[C@H](O)c4cccc(Cl)c4)ccc3o2)no1` gave a melting point of 108 to 110 °C.

`Cc1nc(-n2ccccc2=O)sc1C(=O)NCc1cccnc1` came in with a melting point of 218 to 220 °C.

Take `c1cnc2ccc(Cn3nnc4ccc(-n5ccnc5)nc43)cc2c1`: the melting point lay within 227 to 230 °C.

In the case of `COc1ccc(N2CCN(C(=O)NCCN(C)C)CC2)cc1`, the melting point was in the range of 79 to 82 °C.

Molecule `CC(C)c1cccc(C(C)C)c1NC(=O)Cc1c(-c2ccccc2)c2cc(Cl)ccc2n1C` showed a melting point of 279 to 280 °C.

Regarding `O=C(O)c1oc(=O)c2ccc(Cl)cc2c1-c1ccccc1`, the melting point was in the range of 206 to 208 °C.

The molecule `CC(=O)c1ccc(OCCOc2ccc3ccccc3c2)cc1C` came in with a melting point of 128 to 130 °C.

Consider `COCCNc1c([N+](=O)[O-])cnn1-c1c(Cl)cc(C(F)(F)F)cc1Cl`, for which the melting point was in the range of 85 to 90 °C.

As to `COc1ccc(NC(=O)c2ccccc2C(c2ccc(O)cc2)c2ccc(O)cc2)c(OC)c1`, the melting point fell in the range of 122 to 124 °C.

Turning to `CCCNC1=NS(=O)(=O)c2cc(Cl)sc2N1`, the melting point is 246 to 247 °C.

`O=C(c1ccc2[nH]c(=O)n(Cc3ccc(F)cc3)c(=O)c2c1)c1nc(Br)c2ccccn12`: the melting point was found to be 325 °C.

Molecule `CC(C)(C)OC(=O)NC(=O)C(N)OCc1ccccc1` (configuration not stated) had a melting point of 115 to 120 °C.

`CCC(O)c1cc(-c2ccccc2)no1` (configuration not stated): the melting point lay in the range of 101 to 102 °C.

In the case of `CCN1CCCC(NC(=O)c2ccccc2Nc2ccnc3c(C(F)(F)F)cccc23)C1` (configuration not stated), the melting point fell in the range of 212 to 213 °C.

In turn, `Nc1ccnc(/C=C/c2ccccc2)c1` gave a melting point of 164 to 165 °C.

As for `Clc1ccc2c(c1)CCC(c1cccnc1)O2` (configuration not stated), the melting point lay in the range of 60 to 63 °C.

In turn, `CCC[C@H](N[C@@H](C)C(=O)N1N=C(C(C)(C)C)S[C@H]1C(=O)O)C(=O)OCC` registered a melting point of 183 to 185 °C.

`S=C1Nc2cc(Br)ccc2N2CCc3cccc1c32` gave a melting point of 196 to 197 °C.

The molecule `CCN(CC)C(=O)c1ccc2ccccc2c1-c1ccc2ccccc2c1` yielded a melting point of 159 to 161 °C.

As to `Cc1cccc(CNC(=O)c2ccc3n2Cc2ccccc2N(C(=O)c2ccc(-c4ccccc4C)c(C)c2)C3)c1`, the melting point was 130 to 132 °C.

As to `N#Cc1cc(NC(=O)c2ccn(-c3ccc(F)cc3)c2)ccc1N1CCCCC1`, the melting point was 195 to 196 °C.

Turning to `COc1nc(N)nc(-c2ccc(S(C)(=O)=O)cc2)c1-c1ccc(=O)n(C(C)C)n1`, the melting point was in the range of 148 to 151 °C.

`CC1(C)CC(=O)CC(C)(C)c2cc(Br)ccc21` returned a melting point of 104 to 105 °C.

As to `N#Cc1cc2ccccc2[nH]1`, the melting point fell in the range of 94 to 95 °C.

As to `Cc1c(N2CCC(n3cccc3)CC2)c(F)cn2c(=O)c(C(=O)O)cc(C3CC3)c12`, the melting point fell in the range of 268 to 269 °C.

The molecule `Cc1ccc(C(=O)c2ccc3nc(Cl)nc(-c4cccc(Cl)c4)c3c2)cc1` displayed a melting point of 156 °C.

`C#Cc1ccc2sccc2c1` yielded a melting point of 55 °C.

As for `O=C1c2cccc3c2N(CC3)c2ccccc2N1CC#CCN1CCCC1`, the melting point lay in the range of 80 to 81 °C.

Take `CCCc1c(OCc2cccn3c(=O)c(C#N)cnc23)ccc(C(C)=O)c1O`: the melting point was in the range of 233 to 234 °C.

In the case of `CC1(CN)CN(c2cc3c(cc2F)c(=O)c(C(=O)O)cn3C2CC2)C1`, the melting point lay in the range of 274 to 279 °C.

`CC(=O)c1ccc2c(c1)C(C(=O)Nc1cccc(C(=O)Nc3ccc(Br)cc3)c1)C(=O)N2C` (configuration not stated) returned a melting point of 234 to 236 °C.

Take `Nc1cc(CCC(=O)NC2CCc3ccccc32)ccc1O` (configuration not stated): the melting point was in the range of 130 to 131 °C.

For `CC(C)(C)c1ccc(C(N)=O)cc1N`, the melting point fell in the range of 140 to 142 °C.

For `CC(=O)c1cn(Cc2ccc(F)cc2)c(=O)n(Cc2ccc(F)cc2)c1=O`, the melting point lay in the range of 134 to 135 °C.

As to `COCCOc1ccc(Nc2cc(Nc3ccc(F)c(Cl)c3)ncn2)cc1`, the melting point fell in the range of 208 to 210 °C.

Turning to `CCOCc1nc2c(N)nc3cc(-c4cccc(NS(C)(=O)=O)c4)cnc3c2n1CC(C)(C)F`, the melting point lay within 208 to 209 °C.

Molecule `C[Si](C)(C)C#Cc1cc2cccnc2c(-c2cccc([N+](=O)[O-])c2)n1` displayed a melting point of 160 to 163 °C.

`S=C1C[C@@H](SCc2ccccc2)CN1`: the melting point was 86 to 88 °C.

`CC(C)(Oc1c(Br)cc(-c2c3ccccc3c(Br)c3sc4ccccc4c23)cc1Br)C(=O)O`: the melting point lay in the range of 197 to 199 °C.

The molecule `c1ccc(OCCSCc2nnc(-c3ccc(OCCCN4CCCCCC4)cc3)o2)cc1` displayed a melting point of 50 °C.

For the molecule `NNC(=O)C(Cc1cccs1)NC(=O)[C@H](Cc1cccc2ccccc12)NC(=O)OCc1ccccc1` (mixture of isomers), the melting point lay within 163 to 164 °C.

In turn, `CSc1ccc2ccc(C(=O)O)cc2c1` came in with a melting point of 217 °C.

With `O=C(O)c1c(Cl)ccc(S(=O)(=O)N2CCCCC2)c1Cl`, the melting point was 142 to 145 °C.

In turn, `O=C1c2ccccc2CN1CSc1ccncc1` came in with a melting point of 131 to 132 °C.

`Cc1c(CCc2ccccc2)c(=O)oc2cc(OCc3nnn[nH]3)cc(OCc3nnn[nH]3)c12` returned a melting point of 248 to 250 °C.

On to `O=C(COc1ccc(C2=NNC(=O)NC2)cc1)NCCN1CCOCC1`, for which the melting point is 216 to 217 °C.

The molecule `O=c1[nH]c(=O)n2c3c1cnn3C(c1cccc(C(F)(F)F)c1)=CC2` returned a melting point of 260 to 262 °C.

With `C=CCOc1cccc(C(=O)O)c1C(=O)O`, the melting point was in the range of 166 to 167 °C.

Turning to `COCCNC(=O)c1ccc(C)c(-n2c(C)cc(OCc3ccccc3CNC(=O)Nc3cc(C(C)(C)C)nn3-c3ccc(O)c(Cl)c3)c(Cl)c2=O)c1`, the melting point was 179 to 180 °C.

Molecule `Cc1c([N+](=O)[O-])ccnc1C(=O)NCCNC(=O)OC(C)(C)C` yielded a melting point of 133 to 134 °C.

With `CCN(Cc1cccc(-c2ccc(CC3SC(=O)NC3=O)cc2)c1)C(=O)OC(C)(C)C` (configuration not stated), the melting point turned out to be 103 °C.

`Oc1ncc(-c2ccc(Cl)cc2)cn1` registered a melting point of 324 to 327 °C.

Turning to `Cc1cc([N+](=O)[O-])cnc1Oc1ccc(Cl)c(C(F)(F)F)c1`, the melting point lay within 95 to 97 °C.

Molecule `CCOC(=O)C1(C(=O)Nc2ccc(F)cc2F)CC1` returned a melting point of 79 to 80.5 °C.

For the molecule `COC(=O)C=CC(CNC(=O)C(C)(Cc1c[nH]c2ccccc12)NC(=O)OC1C2CC3CC(C2)CC1C3)c1ccccc1` (configuration not stated), the melting point was in the range of 80 to 93 °C.

Regarding `Cc1[nH]cnc1C(=O)OCc1ccccc1`, the melting point lay in the range of 203 to 205 °C.

On to `COc1ccc(CCNc2nc3nc(-c4ccco4)nc-3c(N)[nH]2)cc1`, for which the melting point is 220 to 222 °C.

For the molecule `O=C(Nc1ccc(-c2ccc(C(=O)N3CCN4CCC3CC4)o2)cc1)c1ccccc1`, the melting point was determined as 254 °C.

The molecule `O=C1c2ccc(=O)[nH]c2CC2CCCCC12` (configuration not stated) gave a melting point of 301 to 303 °C.

Regarding `COCC(=O)Nc1c(C(=O)c2cccc(C)c2)[nH]c2cc(Cl)ccc12`, the melting point fell in the range of 155 to 157 °C.

In turn, `O=C1OC(CI)CN1c1cc(F)c(-c2cccnc2)c(F)c1` (configuration not stated) returned a melting point of 133 to 134 °C.

`CC(C)(C)OC(=O)CC[C@H](NC(=O)c1ccc(N(CCCl)CCCl)cc1)C(=O)OC(C)(C)C` returned a melting point of 114 to 116 °C.

In turn, `Cn1cnc2cc3[nH]c(-c4ccncc4)nc3cc21` displayed a melting point above 280 °C.

As for `COC(=O)COc1ccc(NC(=O)OCCO)cc1`, the melting point was in the range of 85.5 to 87.5 °C.

`CC1C=CC(=O)OC1=O` (configuration not stated): the melting point is 70 to 72 °C.

`Nc1cc(S(=O)c2ccc(-c3ccccc3)cc2)ccc1Cl` (configuration not stated) displayed a melting point of 134 to 137 °C.

Molecule `COc1cc(C(C)C)c2c(c1)S(=O)(=O)N(COC(=O)c1cc(C)no1)C2=O` returned a melting point of 157 to 158 °C.

Take `C[C@@H](O)C1(c2onc(-c3ccc(O)cc3)c2-c2ccccc2)CC1`: the melting point worked out at 213 °C.

Regarding `CC(C)(O)c1ccc(Cl)c2nc3n(c12)CCCN3c1ccc(Cl)cc1Cl`, the melting point was 216 to 218 °C.

In turn, `c1ccc2c(c1)nc1c3c(onc32)CCC1` gave a melting point of 149 to 150 °C.

The molecule `CN(C)c1ccccc1CS(=O)c1cnc2ccccc2n1` (configuration not stated) showed a melting point of 114 to 115 °C.

For `CCN(CC)c1nsc(NC(=O)NC)c1C(N)=O`, the melting point was in the range of 195 to 197 °C.

On to `O=C(O)CC1CCCc2c1n(Cc1ccc(Cl)cc1Cl)c1c(F)cc(F)cc21` (configuration not stated), for which the melting point was 160 to 161 °C.

As to `COc1cc(C(=O)N2CCC(CCN3CCC(=C(c4ccccc4)c4ccccc4)CC3)(c3ccc(Cl)c(Cl)c3)C2)cc(OC)c1OC` (configuration not stated), the melting point fell in the range of 90 to 94 °C.

With `COc1ccc(C2=NN(C3CCOCC3)C(=O)[C@H]3CC=CC[C@@H]23)cc1OC1CCCC1` (relative stereo), the melting point lay in the range of 116 to 117 °C.

With `ON=C(c1cc(F)cc(F)c1)c1cccc2nc(N[C@@H]3CCc4ccccc43)ccc12`, the melting point came to 120 °C.

As for `COc1ccc2c(c1)C(CC(=O)O)=C(C)C2=Cc1ccc(S(N)(=O)=O)cc1`, the melting point is 224 to 225 °C.

As to `Cc1ccc2c(n1)sc1c(=O)n(C)nnc12`, the melting point was 169 to 171 °C.

As for `CN(C)c1ccc(N=Nc2ccc(C(=O)Nc3ccc4[nH]nnc4c3)cc2)cc1`, the melting point was 246 °C.
